For the assay, the system named is PANC-1 (human pancreatic cancer-derived cell line). In words: MTS assay on Panc-1 (human pancreas carcinoma cell line). In kind it is cell-based. To be noted: 144 h; for IC50: PANC-1, MTS method, cell survival 6 days after exposure, 4-parameter logistic fit; for inhibition at 0.3125 µM: read-out: Growth inhibition (%) 0.3125 μM; for inhibition at 1 µM: read-out: Growth inhibition (%) 1 μM; for inhibition at 10 µM: read-out: Growth inhibition (%) 10 μM; for inhibition at 30 µM: read-out: Growth inhibition (%) 30 μM. As for the experimental part: Experimental Example: MTS Assay on Panc-1 (Human Pancreas Carcinoma Cell Line) cell line name: PANC-1 derived from: human pancreas glandular cancer purchased from: ATCC product code: CRL-1469 proliferation medium: D-MEM+10% FBS culture environment: 37° C., 5% CO2 seeding density: 5.0×10^5 cells/25 cm^2 solvent control substance: DMSO (HYBRI-MAX®, Sigma-Aldrich Corp.) test substance: Example compound (ID-1-ID-13) A DMSO solution of the test substance was prepared by serially diluting (common ratio 2) each test substance with DMSO.
A solvent control substance sample and a test substance sample were exposed to a human pancreatic cancer-derived cell line (PANC-1), and the survival rate of the cell 6 days later was measured by the MTS method. The measurement was performed 3 times and the average thereof was adopted. The survival rate of the cell in each test substance sample was calculated by the following formula 1 with the value at exposure of the solvent control substance sample as 100% survival rate. […]
survival rate (%)=100×absorbance of each test substance sample/absorbance of solvent control substance sample formula 1 Normalized values calculated by the following formula 2 from the absorbances of each sample at 492 nm and 630 nm and the absorbances of the blank were used as the absorbances in the above-mentioned formula 1. […]
normalized value (ABS492 nm-630 nm)=(ABSsa 492 nm-ABSsa 630 nm)−(ABSbl 492 nm-ABSbl 630 nm) ABSsa 492: absorbance of each sample at wavelength 492 nm ABSsa 630: absorbance of each sample at wavelength 630 nm ABSbl 492: absorbance of blank corresponding to each sample at wavelength 492 nm ABSbl 630: absorbance of blank corresponding to each sample at wavelength 630 nm formula 2 […]
The analysis was performed by using nplr package on R (The R Foundation for Statistical Computing) and estimating the logistic regression curve (4-parameter).

Consider `CCC(CC)C[C@H]1ON(C(=O)/C=C/c2cnc3ccccc3n2)[C@H]2CN([C@@H]3CCN(CCCCO)C3)C(=O)[C@H](CC(C)(C)C)N2C1=O` [ID-107, (3R, 6S, 9aS)-3-(2-ethylbutyl)-8-((R)-1-(4-hydroxybutyl)pyrrolidin-3-yl)-6-neopentyl-1-((E)-3-(quinoxalin-2-yl)acryloyl)tetrahydropyrazino[2,1-c][1,2,4]oxadiazine-4,7(3H,6H)-dione], for which the half-maximal inhibitory concentration (IC50) – broadly, the concentration at which inhibition is half-maximal – came to 200 nM. In addition, for the setting “PANC-1, MTS, 6 days”, the inhibition (usually the relative decrease from the control value, in per cent) at 0.3125 µM was determined as 94.3% and the inhibition at 1 µM is 98.5%. `CC(C)C[C@H]1ON(C(=O)/C=C/c2nc(C#CC3CCOCC3)cs2)[C@H]2CN([C@@H]3CCN(CCCCO)C3)C(=O)[C@H](CC(C)(C)C)N2C1=O` [ID-94, (3R,6S,9aS)-8-((R)-1-(4-hydroxybutyl)pyrrolidin-3-yl)-3-isobutyl-6-neopentyl-1-((E)-3-(4-((tetrahydro-2H-pyran-4-yl)ethynyl)thiazol-2-yl)acryloyl)tetrahydropyrazino[2,1-c] [1,2,4]oxadiazine-4,7-(3H,6H)-dione]: the inhibition at 0.15625 µM (PANC-1, MTS, 6 days, 0.15625 μM, read-out: Growth inhibition (%) 0.15625 μM) stood at 42.3%. In turn, `CC(C)C[C@H]1ON(C(=O)/C=C/c2cc(C#N)ccn2)[C@H]2CN(C3CCN(C)CC3)C(=O)[C@H](CC(C)C)N2C1=O` [ID-48, 2-((E)-3-((3R,6S,9aS)-3,6-diisobutyl-8-(1-methylpiperidin-4-yl)-4,7-dioxohexahydropyrazino[2,1-c][1,2,4]oxadiazin-1(6H)-yl)-3-oxoprop-1-en-1-yl)isonicotinonitrile] showed an IC50 of 580 nM. Moreover, the inhibition at 10 µM (PANC-1, MTS, 6 days) came out at 100%. For `CC(C)C[C@H]1ON(C(=O)/C=C/c2ccnn2C)[C@H]2CN(C3CCN(C)CC3)C(=O)[C@H](CC(C)C)N2C1=O` [ID-44, (3R,6S,9aS)-3,6-diisobutyl-1-((E)-3-(1-methyl-1H-pyrazol-5-yl)acryloyl)-8-(1-methylpiperidin-4-yl)tetrahydropyrazino[2,1-c][1,2,4]oxadiazine-4,7(3H,6H)-dione], the inhibition at 10 µM (PANC-1, MTS, 6 days) was 94.7%. As to `CC(C)(C)C[C@H]1C(=O)N(CC2CCNCC2)C[C@@H]2N(C(=O)/C=C/c3cnc4ccccc4n3)O[C@H](CC3CCCCC3)C(=O)N21` [ID-26, (3R,6S,9aS)-3-(cyclohexylmethyl)-6-neopentyl-8-(piperidin-4-ylmethyl)-1-((E)-3-(quinoxalin-2-yl)acryloyl)tetrahydropyrazino[2,1-c][1,2,4]oxadiazine-4,7(3H,6H)-dione], the inhibition at 0.625 µM (PANC-1, MTS, 6 days, 0.625 μM, read-out: Growth inhibition (%) 0.625 μM) worked out at 4.2%. Under “PANC-1, MTS, 6 days”, the inhibition at 1 µM was determined as 96.1%. `CC(C)C[C@H]1ON(C(=O)/C=C/c2nc(C#CCCCO)cs2)[C@H]2CN(C3CCN(C(C)C)CC3)C(=O)[C@H](CC(C)(C)C)N2C1=O` [ID-10, (3R,6S,9aS)-1-((E)-3-(4-(5-hydroxypent-1-yn-1-yl)thiazol-2-yl)acryloyl)-3-isobutyl-8-(1-isopropylpiperidin-4-yl)-6-neopentyltetrahydropyrazino[2,1-c][1,2,4]oxadiazine-4,7(3H,6H)-dione] had an IC50 of 48 nM. For `CC(C)C[C@H]1ON(C(=O)/C=C/c2ccccn2)[C@H]2CN(C3CCCN(C)C3)C(=O)[C@H](CC(C)C)N2C1=O` (stereo partly drawn) [ID-65, (3R,6S,9aS)-3,6-diisobutyl-8-(1-methylpiperidin-3-yl)-1-((E)-3-(pyridin-2-yl)acryloyl)tetrahydropyrazino[2,1-c][1,2,4]oxadiazine-4,7(3H,6H)-dione], the IC50 stood at 4700 nM. Besides, the inhibition at 10 µM (PANC-1, MTS, 6 days) came out at 96.5%. `CC(C)C[C@H]1ON(C(=O)/C=C/c2nc3cc(O)ccc3s2)[C@H]2CN(C3CN(CCCCO)C3)C(=O)[C@H](CC(C)(C)C)N2C1=O` [ID-8, (3R,6S,9aS)-1-((E)-3-(5-hydroxybenzo[d]thiazol-2-yl)acryloyl)-8-(1-(4-hydroxybutyl)azetidin-3-yl)-3-isobutyl-6-neopentyltetrahydropyrazino[2,1-c][1,2,4]oxadiazine-4,7(3H,6H)-dione]: the IC50 stood at 63 nM. With `CC(C)C[C@H]1ON(C(=O)/C=C/c2ccccn2)[C@H]2CN(CCC(=O)N3CCNCC3)C(=O)[C@H](CC(C)C)N2C1=O` [ID-21, (3R,6S,9aS)-3,6-diisobutyl-8-(3-oxo-3-(piperazin-1-yl)propyl)-1-((E)-3-(pyridin-2-yl)acryloyl)tetrahydropyrazino[2,1-c][1,2,4]oxadiazine-4,7 (3H, 6H)-dione], the IC50 was determined as 19800 nM. Further, the inhibition at 30 µM (PANC-1, MTS, 6 days) was 99.5%.

`CC(C)C[C@H]1ON(C(=O)/C=C/c2nc3ccccc3s2)[C@H]2CN(C3CCN(CCCN)CC3)C(=O)[C@H](CC(C)(C)C)N2C1=O` [ID-75, (3R,6S,9aS)-8-(1-(3-aminopropyl)piperidin-4-yl)-1-((E)-3-(benzo[d]thiazol-2-yl)acryloyl)-3-isobutyl-6-neopentyltetrahydropyrazino[2,1-c][1,2,4]oxadiazine-4,7(3H,6H)-dione] registered an IC50 of 390 nM. In addition, the inhibition at 0.3125 µM (PANC-1, MTS, 6 days) came to 19.9%. The compound `CNC(=O)CCN1C[C@@H]2N(C(=O)/C=C/c3ccccn3)O[C@H](CC(C)C)C(=O)N2[C@@H](CC(C)C)C1=O` [ID-18, 3-((3R,6S,9aS)-3,6-diisobutyl-4,7-dioxo-1-((E)-3-(pyridin-2-yl)acryloyl)hexahydropyrazino[2,1-c][1,2,4]oxadiazin-8 (1H)-yl)—N-methylpropanamide] showed an IC50 of 15900 nM. Besides, the inhibition at 30 µM (PANC-1, MTS, 6 days) worked out at 96.4%. In the case of `CC(C)C[C@H]1ON(C(=O)/C=C/c2ccccn2)[C@H]2CN(C3CCN(C)CC3)C(=O)[C@H](CC(C)C)N2C1=O` [ID-1, (3R, 6S, 9aS)-3,6-diisobutyl-8-(1-methylpiperidin-4-yl)-1-((E)-3-(pyridin-2-yl)acryloyl) tetrahydropyrazino[2,1-c] [1,2,4]oxadiazine-4,7(3H,6H)-dione], the IC50 is 4100 nM.

In the case of `CC(C)(C)C[C@H]1C(=O)N([C@@H]2CCN(CCCCO)C2)C[C@@H]2N(C(=O)/C=C/c3cnc4ccccc4n3)O[C@H](CCCCNC(=O)OCc3ccccc3)C(=O)N21` [ID-105, benzyl (4-((3R,6S,9aS)-8-((R)-1-(4-hydroxybutyl)pyrrolidin-3-yl)-6-neopentyl-4,7-dioxo-1-((E)-3-(quinoxalin-2-yl)acryloyl)octahydropyrazino[2,1-c][1,2,4]oxadiazin-3-yl)butyl)carbamate], where the note is “PANC-1, MTS, 6 days”, the inhibition at 30 µM was determined as 98.3%.

`CC(C)C[C@H]1ON(C(=O)/C=C/c2nc3ccccc3s2)[C@H]2CN(CCC(N)=O)C(=O)[C@H](CC(C)C)N2C1=O` [ID-23, 3-((3R,6S,9aS)-1-((E)-3-(benzo[d]thiazol-2-yl)acryloyl)-3,6-diisobutyl-4,7-dioxohexahydropyrazino[2,1-c][1,2,4]oxadiazin-8(1H)-yl)propanamide] yielded an IC50 of 770 nM. Moreover, the inhibition at 30 µM (PANC-1, MTS, 6 days) worked out at 102%. As to `CC(C)C[C@H]1ON(C(=O)/C(Cl)=C/c2ccccn2)[C@H]2CN(C3CCN(C)CC3)C(=O)[C@H](CC(C)C)N2C1=O` [ID-47, (3R,6S,9aS)-1-((Z)-2-chloro-3-(pyridin-2-yl)acryloyl)-3,6-diisobutyl-8-(1-methylpiperidin-4-yl)tetrahydropyrazino[2,1-c][1,2,4]oxadiazine-4,7(3H,6H)-dione], 10000 nM corresponded to half-maximal inhibition (IC50). Moreover, the inhibition at 10 µM (PANC-1, MTS, 6 days) came out at 66.6%.

The values above are taken from patent US20230265104A1, “NOVEL HETEROCYCLIC COMPOUNDS” (PRISM BIOLAB CO., LTD., priority 2020, published 2023).
